Results: paper PMC6105804, “In Vitro and In Vivo Evaluation of APX001A/APX001 and Other Gwt1 Inhibitors against Cryptococcus” (Antimicrobial Agents and Chemotherapy, 2018)
Where two headings read alike, the source gives them in different places.

Legend:
C. neoformans strain H99 = experiment: Murine cryptococcal meningitis model with ABT, dose-response study; format: in vivo, Cryptococcus neoformans; conditions: control animals with daily 100-mg/kg ABT without an APX compound
Protocol: A dose-response study was performed with APX2096 and APX2097 to confirm the observed activity. In this study, QD doses of 7.5, 20, and 60 mg/kg were evaluated in conjunction with the administration of ABT. A 60-mg/kg dose QD without ABT was also evaluated as a control.
FIG 3 Dose-response of APX2096 and APX2097 in a murine model of cryptococcal meningitis in conjunction with ABT administration. ABT at 100 mg/kg was administered orally to male CD-1 mice at 2 h prior to each APX compound dose. Mice were injected with 4.8 × 10^4 CFU C. neoformans strain H99 per mouse via the lateral tail vein at time zero. Treatment with the APX compounds was initiated at 1 h postinfection by i.p. administration and continued for 7 days, with 100-mg/kg ABT being administered orally 2 h prior to each APX compound dose. The correction factors for prodrug potencies versus the potencies of the active moieties were similar enough such that the same factor (1.3) was used for all APX compounds. Fungal burden data were log10 transformed and evaluated using Kruskal-Wallis tests with Dunn's multiple-comparison test for post hoc analysis (Prism software, v5; GraphPad Software, Inc., San Diego, CA). […] A P value of ≤0.05 was considered statistically significant (*, P ≤ 0.05; **, P ≤ 0.01; ***, P ≤ 0.001). The 95% confidence interval (CI) is presented.
C. neoformans strain H99 was grown in yeast extract-peptone-dextrose broth at 30°C on a shaker (220 rpm) for 24 h, centrifuged (1,980 relative centrifugal force), and washed twice in phosphate-buffered saline (PBS), resuspended in PBS, and quantified by hemacytometric count. Male CD-1 mice were infected with ∼5 × 10^4 CFU per mouse via lateral tail vein injection of 100 μl. Mice were weighed, and treatment was begun within 1 h after infection. Treatments were administered daily for 7 days. Mice were weighed daily and observed for acute and chronic adverse symptoms. Mice were sacrificed on day 8, and the brain and left lung were homogenized and cultured for quantitative determination of the tissue burden (number of CFU per gram of tissue). Tissues were homogenized for 25 s in 1 ml phosphate-buffered saline using two 6.5-mm steel beads and a Mini-Beadbeater 16 apparatus (Biospec Products, Inc., Bartlesville, OK) and serially diluted in 10-fold steps. Aliquots (100 μl) of homogenate were plated and incubated for 3 to 7 days at 37°C. Fungal burden data were log10 transformed and evaluated using Kruskal-Wallis tests with Dunn's multiple-comparison test for post hoc analysis (Prism software, v5; GraphPad Software, Inc., San Diego, CA). A P value of ≤0.05 was considered statistically significant.

C. neoformans = experiment: Broth microdilution susceptibility testing (CLSI M27-A3); format: cell-based, Cryptococcus neoformans; conditions: for MIC: Cryptococcus neoformans
Description: (§1) C. neoformans strains H99, DUMC 118.00, and DUMC 158.03 and C. gattii strains R272 and RSA-MW-3515 were obtained from Duke University. C. albicans 90028, A. fumigatus MYA3626, C. neoformans 14116, C. neoformans 76484, and the pathogenic Cryptococcus reference strains panel (ATCC MP-11) were obtained from the American Type Culture Collection (ATCC; Manassas, VA, USA). The ATCC MP-11 panel consists of strains representing eight molecular types and three subtypes of C. neoformans and C. gattii.
(§2) To establish the antimicrobial activity of the APX001A analogs, broth microdilution susceptibility testing was performed according to Clinical and Laboratory Standards Institute (CLSI) guidelines M27-A3 ([47]) for yeasts and M38-A2 for molds ([48]). APX001A and analogs were first diluted in DMSO to obtain intermediate dilutions. These were further diluted in microtiter plates to obtain a final concentration of 2 to 0.002 μg/ml. One microliter of DMSO was added to the no-drug control wells. The solutions were mixed on a plate shaker for 10 min, and the plates were incubated at 35°C for 40 to 48 h (C. albicans, A. fumigatus) and 72 h (C. neoformans). The minimum concentration that led to a 50% reduction in fungal growth compared to that for the control (determined with the aid of a reading mirror) was determined as the MIC for C. albicans and C. neoformans. The minimum concentration that led to the shortening of hyphae compared to the hyphal growth in DMSO control wells was determined as the minimum effective concentration (MEC) for A. fumigatus (as read for the echinocandins). The use of the MIC and MEC endpoints for APX001A (formerly E1210) against yeasts and molds, respectively, has been described previously ([19][–][21]). For the cryptococcal synergy studies, APX001A and APX2020 MIC values were read at 50% inhibition.

A. fumigatus MYA3626 = experiment: Broth microdilution susceptibility testing for molds (CLSI M38-A2); format: cell-based
Description: as §1, §2

C. gattii = experiment: Broth microdilution susceptibility testing (CLSI M27-A3); format: cell-based; conditions: Cryptococcus gattii
Description: as §1, §2

C. albicans 90028 = experiment: as above; format: cell-based, Candida albicans
Description: as §1, §2

[1] = Single-dose mouse pharmacokinetics of prodrugs with or without ABT; format: in vivo; conditions: for Ratio of AUC with ABT/AUC without ABT, i.p. dosing / Ratio of AUC with ABT/AUC without ABT, p.o. dosing: 26 mg/kg prodrug; for AUC: male, CD-1, mouse, plasma, 26 mg/kg
Protocol: The area under the curve (AUC) was calculated from time zero to the time of the last measurable concentration. The active metabolite concentrations in plasma (APX001A, APX2039, APX2020, and APX2041) were determined by liquid chromatography-tandem mass spectrometry. PK parameters were determined using Phoenix WinNonlin (v7.0) software and a noncompartmental model.

[2] = system: FLC-susceptible and FLC-nonsusceptible/resistant strains of C. neoformans and C. gattii; experiment: Broth microdilution, summary over the 18-strain Cryptococcus collection; format: cell-based, Cryptococcus neoformans and Cryptococcus gattii; conditions: for MIC90 / MIC: 18 strains of C. neoformans and C. gattii; for MIC: read-out: Geometric mean MIC
Protocol: as §2, with “The minimum concentration that led to the shortening of hyphae compared to the hyphal growth in DMSO control wells was determined as the minimum effective concentration (MEC) for A. fumigatus (as read for the echinocandins).” left out

[3] = 72 h, Table 1, 50% growth inhibition for FLC, caspofungin and APX compounds, 100% for AMB, 72 h, read-out: MIC, C. neoformans H99
[4] = C. neoformans isolate 14116, read-out: MIC
[5] = C. neoformans isolate 76484, read-out: MIC
[6] = C. neoformans isolate DUMC 118.00 (FLC resistant), read-out: MIC
[7] = C. neoformans isolate DUMC 158.03 (FLC resistant), read-out: MIC
[8] = C. neoformans isolate MYA-4564, read-out: MIC
[9] = C. neoformans isolate MYA-4565, read-out: MIC
[10] = C. neoformans isolate MYA-4566, read-out: MIC
[11] = C. neoformans isolate MYA-4567, read-out: MIC
[12] = Table 2, C. neoformans isolate H99, read-out: MIC
[13] = Aspergillus fumigatus, MYA3626; read-out: MIC or MEC for A. fumigatus MYA3626
[14] = C. gattii isolate MYA-4093, read-out: MIC
[15] = C. gattii isolate MYA-4094, read-out: MIC
[16] = C. gattii isolate MYA-4560 (first listing, r17), read-out: MIC
[17] = C. gattii isolate MYA-4560 (second listing, r21), read-out: MIC
[18] = C. gattii isolate MYA-4561, read-out: MIC
[19] = C. gattii isolate MYA-4562, read-out: MIC
[20] = C. gattii isolate MYA-4563, read-out: MIC
[21] = C. gattii isolate MYA-4877, read-out: MIC
[22] = C. gattii isolate RSA-MW-3615 (FLC resistant), read-out: MIC
[23] = Table 1, 50% growth inhibition for FLC, caspofungin and APX compounds, 100% for AMB, read-out: MIC, C. gattii WM276
[24] = Candida albicans, 90028; read-out: MIC, C. albicans 90028
[25] = intraperitoneal, AUC of analyte after 26 mg/kg prodrug, 100 mg/kg ABT orally 2 h before, read-out: Avg AUC resulting from 26-mg/kg dose, i.p. dosing + ABT
[26] = ip, AUC of analyte after 26 mg/kg of the corresponding prodrug, male CD-1 mice, no ABT, read-out: Avg AUC resulting from 26-mg/kg dose, i.p. dosing
[27] = po, AUC of analyte after 26 mg/kg prodrug, 100 mg/kg ABT orally 2 h before, read-out: Avg AUC resulting from 26-mg/kg dose, p.o. dosing + ABT
[28] = po, AUC of analyte in plasma after 26 mg/kg of the corresponding prodrug, male CD-1 mice, no ABT, read-out: Avg AUC resulting from 26-mg/kg dose, p.o. dosing

| SMILES | MIC (C. neoformans; [3]) [mg/L] | MIC (C. neoformans; [4]) [mg/L] | MIC (C. neoformans; [5]) [mg/L] | MIC (C. neoformans; [6]) [mg/L] | MIC (C. neoformans; [7]) [mg/L] | MIC (C. neoformans; [8]) [mg/L] | MIC (C. neoformans; [9]) [mg/L] | MIC (C. neoformans; [10]) [mg/L] | MIC (C. neoformans; [11]) [mg/L] | MIC (C. neoformans; [12]) [mg/L] | MIC (A. fumigatus MYA3626; [13]) [mg/L] | MIC (C. gattii; [14]) [mg/L] | MIC (C. gattii; [15]) [mg/L] | MIC (C. gattii; [16]) [mg/L] | MIC (C. gattii; [17]) [mg/L] | MIC (C. gattii; [18]) [mg/L] | MIC (C. gattii; [19]) [mg/L] | MIC (C. gattii; [20]) [mg/L] | MIC (C. gattii; [21]) [mg/L] | MIC (C. gattii; [22]) [mg/L] | further results |
| --- | --- | --- | --- | --- | --- | --- | --- | --- | --- | --- | --- | --- | --- | --- | --- | --- | --- | --- | --- | --- | --- |
| Nn1nnc2ccccc21 [ABT, 1-Aminobenzotriazole, reference compound] |  |  |  |  |  |  |  |  |  |  |  |  |  |  |  |  |  |  |  |  | mean counts in brain tissue (C. neoformans strain H99): 8.07 ± 0.28 log10 CFU/g; mean counts in lung tissue (C. neoformans strain H99): 7.04 ± 0.34 log10 CFU/g |
| Nc1ncccc1-c1cc(Cc2ccc(Oc3cccc(F)n3)cc2)no1 [APX2039] | 0.008 | 0.004 | 0.004 | 0.016 | 0.031 | 0.004 | 0.031 | 0.008 | 0.016 | 0.004 | 0.125 | 0.016 | 0.016 | 0.008 | 0.008 | 0.016 | 0.016 | 0.016 | 0.008 | 0.004 | fold improved anti-C. neoformans H99 activity vs APX001A (C. neoformans; from MIC values of Table 1): 32 fold; MIC (C. gattii; [23]): 0.004 mg/L; MIC (C. albicans 90028; [24]): 0.031 mg/L; Ratio of AUC with ABT/AUC without ABT, i.p. dosing [1]: 8.3; Ratio of AUC with ABT/AUC without ABT, p.o. dosing [1]: 8.6; AUC [1, 25]: 97.2 ± 12.6 µg·h/mL; AUC [1, 26]: 11.8 ± 1.83 µg·h/mL; AUC [1, 27]: 91.3 ± 20.8 µg·h/mL; AUC [1, 28]: 10.7 ± 0.48 µg·h/mL; fold higher exposure than the three other compounds ([1]; oral administration of prodrug with ABT): approximately 2 fold; fold higher AUC than the other compounds ([1]; prodrugs administered i.p.): approximately 2 fold; MIC90 [2]: 0.031 mg/L; MIC [2]: 0.01 mg/L; fold lower MIC values than APX001A versus Cryptococcus ([2]; Table 1 strains H99 and WM276): 32 fold |
| Nc1ncccc1-c1cc(Cc2ccc(OCc3ccccc3)nc2)no1 [APX2041] | 0.031 | 0.016 | 0.016 | 0.063 | 0.125 | 0.016 | 0.125 | 0.063 | 0.031 | 0.031 | 0.016 | 0.125 | 0.063 | 0.016 | 0.016 | 0.031 | 0.031 | 0.031 | 0.016 | 0.016 | MIC (C. gattii; [23]): 0.016 mg/L; MIC (C. albicans 90028; [24]): 0.031 mg/L; Ratio of AUC with ABT/AUC without ABT, i.p. dosing [1]: 15.5; Ratio of AUC with ABT/AUC without ABT, p.o. dosing [1]: 14.3; AUC [1, 25]: 72.6 ± 9.07 µg·h/mL; AUC [1, 26]: 4.68 ± 0.73 µg·h/mL; AUC [1, 27]: 49.9 ± 10.3 µg·h/mL; AUC [1, 28]: 3.49 ± 0.27 µg·h/mL; MIC90 [2]: 0.125 mg/L; MIC [2]: 0.034 mg/L |
| CC[C@H](C)C[C@H](C)CCCCCCCCC(=O)N[C@H]1C[C@@H](O)[C@@H](NCCN)NC(=O)[C@@H]2[C@@H](O)CCN2C(=O)[C@H]([C@H](O)CCN)NC(=O)[C@H]([C@H](O)[C@@H](O)c2ccc(O)cc2)NC(=O)[C@@H]2C[C@@H](O)CN2C(=O)[C@H]([C@@H](C)O)NC1=O [CAS, caspofungin, reference compound] |  |  |  |  |  |  |  |  |  |  |  |  |  |  |  |  |  |  |  |  | MIC (A. fumigatus MYA3626; Aspergillus fumigatus, MYA3626, read-out: MIC or MEC for A. fumigatus MYA3626): 0.25 mg/L; MIC (C. albicans 90028; Candida albicans, 90028, read-out: MIC, C. albicans 90028): 0.5 mg/L |
